Reference: paper PMC4819177, “The rational search for selective anticancer derivatives of the peptide Trichogin GA IV: a multi-technique biophysical approach” (Scientific Reports, 2016)
pEC50: −log10 of the molar value. “Also recorded” adds a separate entry of the source. Square brackets hold non-standard residues; d marks the D form. Peptide text beside a SMILES is read from it. * marks the point of attachment. TOAC = CC1(C)CC(N)(C(=O)O)CC(C)(C)N1[O]; Leu(ol) = CC(C)C[C@H](N)CO; Octanoyl = CCCCCCCC(=O)*; Api = NC1(C(=O)O)CCNCC1; Aib = CC(C)(N)C(=O)O

Key:
[1] = system: T67 human glioma cell line; type: cell-based; details: MTT, 24 h exposure; average error about ±2 μM
Method: (§1) We studied the effect of TG and its analogues on normal (HDF) and transformed (T67 and HeLa) cells. The cellular viability was assessed after 24 hours of exposure to the peptides by the MTT assay (Table 1).
(§2) Culture media, foetal bovine serum (FBS) and antibiotics were purchased from Carlo Erba Dasit Group. The T67 human glioma cell line was derived by Lauro et al.[49] from a World Health Organization (WHO) Grade III gemistocytic astrocytoma. Human dermal fibroblasts (HDF) were obtained by ATCC. HDF were cultured in Fibroblast Basal Medium (ATCC) supplemented with 10% FBS. T67 and HeLa cells were cultured in Dulbecco’s modified Eagle’s medium (MMedical) supplemented with 10% FBS, 100 UI/ml penicillin, 100 μg/ml streptomycin, and 40 μg/ml gentamycin, and kept in a 5% CO2 atmosphere at 37 °C, with saturating humidity. Cell viability and number were measured by trypan blue exclusion method.
(§3) Cytotoxicity of peptides was estimated using a MTT assay. All the chemicals used for this assay have been purchased by sigma Aldrich and used without further purification. T67, HeLa and HDF cells were seeded in 24-well plates at 1 × 10^5 cells/well. Experiments were performed after 24 h of incubation at 37 °C in 5% CO2. After this time cells were washed and treated for 24 h with different concentrations of peptides; the cells are then incubated for 60 mins with 300 μM of MTT in culture medium. The absorbance of each well was measured at 450 nm with a spectrofluorometer (Wallac Victor multilabel counter; Perkin-Elmer Inc., Boston, MA, USA). Data are reported as the mean ± standard deviation of at least three independent experiments.

[2] = system: human dermal fibroblasts (HDF); type: cell-based; details: MTT, 24 h exposure; average error about ±2 μM
Method: as §1, §2, §3

[3] = system: S. aureus; details: relative to TG; cited from earlier work
[4] = system: HeLa cells; type: cell-based, human; details: MTT, 24 h exposure; average error about ±2 μM
Method: as §1, §2, §3

[5] = system: HDF cells; test: EPR of TOAC-labelled peptides with intact HDF cells; type: binding, human; details: 125 μM, 25 nmol per million cells, 15–20 min incubation
Description: (§4) EPR spectroscopy has been performed on TOAC-labelled analogues to determine the amount of peptide bound to the membrane and to evaluate the peptide dynamics. […] We studied all analogues in buffer solution and in POPC SUV, the same systems used for CD spectroscopy; four selected analogues (see cytotoxicity assay paragraph) were also studied interacting with a suspension of intact cells of the three cell lines. […] Additionally, from the simulations, we determined the value of the Azz hyperfine component that gives an indication of the polarity of the environment. All EPR spectra and simulations are reported in the Supplementary Information (Figs S1–S4), while in Fig. 4, we report an overview of the experiments. In the top part of the figure, we show the spectra of [TOAC^1] TG in buffer solution (blue), in SUV (red), and interacting with T67 cells (magenta). In the bottom part, we show the spectra of the other three peptides, representative of the different degrees of biological activity, interacting with intact T67 cells. […]
(§5) Methanol, 99.9%, spectrophotometric grade, [4-(2-hydroxyethyl)-1-piperazinyl]ethanesulfonic acid (HEPES), and PBS buffer (NaCl 137 mM, KCl 2.7 mM, Na2HPO4 10 mM, KH2PO4 1.8 mM, pH 7.4) were purchased from Sigma-Aldrich. […] The spectra were recorded after 15–20 minutes of incubation of the peptide to the cell suspension. […]

[6] = EPR of TOAC-labelled peptides in POPC SUV; type: binding; details: P:L 1:100, 78 μM peptide
Description: as §4, with “[TOAC^1]” for “[TOAC^1] TG in buffer solution (blue), in SUV (red), and interacting with T67 cells (magenta). In the bottom part, we show the spectra of the other three peptides, representative of the different degrees of biological activity, interacting with intact T67 cells.”
The EPR spectra of all TOAC-labelled peptides recorded in POPC SUV are very similar to each other, and are shown in the Supplementary Information, Fig. S1. […]
(§6) Methanol, 99.9%, spectrophotometric grade, [4-(2-hydroxyethyl)-1-piperazinyl]ethanesulfonic acid (HEPES), and PBS buffer (NaCl 137 mM, KCl 2.7 mM, Na2HPO4 10 mM, KH2PO4 1.8 mM, pH 7.4) were purchased from Sigma-Aldrich. […] The spectra were recorded after 15–20 minutes of incubation of the peptide to the cell suspension. […] The microwave frequency was measured by a frequency counter, HP5342A. […]

[7] = system: T67, HeLa and HDF cells; test: MTT cytotoxicity assay, summary over the three cell lines; type: cell-based, human; details: 24 h
Method: as §1, §3

[8] = system: HeLa cells; test: EPR of TOAC-labelled peptides with intact HeLa cells; type: binding, human; details: 125 μM, 25 nmol per million cells, 15–20 min incubation
Description: as §4, §5

[9] = system: suspensions of intact cells (T67, HeLa, HDF); test: EPR binding to suspensions of intact cells, summary; parameters: species or system human; details: over the three cell lines
Description: The EPR spectra of all peptides interacting with suspensions of intact cells (Fig. S3) show two spectral components: the three sharp lines characteristic of peptides in aqueous solution and the broad lineshape of peptides bound to the membrane. Therefore all peptides are not fully bound to the cell membranes. The presence of two well-defined spectral components implies that the exchange of the peptides between the two phases (membrane and aqueous solution) is slow on the EPR timescale, with a frequency less than ≈1 MHz. The amount of peptide bound to the membrane is obtained from the relative contribution of each spectral component to the total area of the simulated spectrum. A detailed example of the procedure is reported in the Supplementary Information, Fig. S4. The spectra show small variations in binding for the same peptide in different cell lines, and large variations for different peptides in the same cell line. Among the analogues, [TOAC^1, Lys^6] TG and [TOAC^1, Leu^4] […]
as §6

[10] = system: T67 cells; test: EPR of TOAC-labelled peptides with intact T67 cells; type: binding, human; details: 125 μM, 25 nmol per million cells, 15–20 min incubation
Description: as §4, §5

Row | SMILES | pEC50 [1] | pEC50 [2] | antibacterial activity [3] | pEC50 [4] | % membrane-bound peptide HDF [5] | % membrane-bound peptide POPC SUV [6] | cytotoxicity / selectivity in words [7] | % membrane-bound peptide HeLa [8] | percentage of peptide bound to cells [9] | % membrane-bound peptide T67 [10]
1 | CCCCCCCC(=O)NC(C)(C)C(=O)NCC(=O)N[C@@H](CC(C)C)C(=O)NC(C)(C)C(=O)N[C@@H](CCCCN)C(=O)N[C@@H](CCCCN)C(=O)N[C@@H](CC(C)C)C(=O)NC(C)(C)C(=O)NCC(=O)N[C@H](C(=O)N[C@H](CO)CC(C)C)[C@@H](C)CC [[Lys^5,6] TG, Oct-UGLUKKLUGI-Lol] | 5.15 | 4.82 | remarkably increased activity | 5.00 |  |  |  |  |  | 
2 | CCCCCCCC(=O)NC1(C(=O)NCC(=O)N[C@@H](CC(C)C)C(=O)NC2(C(=O)NCC(=O)NCC(=O)N[C@@H](CC(C)C)C(=O)NC(C)(C)C(=O)NCC(=O)N[C@H](C(=O)N[C@H](CO)CC(C)C)[C@@H](C)CC)CCNCC2)CC(C)(C)N([O])C(C)(C)C1 [[TOAC^1, Api^4] TG, Oct-XGLZGGLUGI-Lol] (Octanoyl-[TOAC]GL[Api]GGL[Aib]GI[Leu(ol)]) |  | < 4.70 |  | < 4.70 | 28% | >99% | selective toxicity; also recorded: selective cytotoxicity towards a cancer cell line | 21% |  | 
3 | CCCCCCCC(=O)NC1(C(=O)NCC(=O)N[C@@H](CC(C)C)C(=O)NC(C)(C)C(=O)NCC(=O)NCC(=O)N[C@@H](CC(C)C)C(=O)NC(C)(C)C(=O)NCC(=O)N[C@H](C(=O)N[C@H](CO)CC(C)C)[C@@H](C)CC)CC(C)(C)N([O])C(C)(C)C1 [[TOAC^1] TG, Oct-XGLUGGLUGI-Lol] (Octanoyl-[TOAC]GL[Aib]GGL[Aib]GI[Leu(ol)]) | 6.00 | 5.30 |  | 5.52 | 84% | 100% |  | 78% | ~ 80% | 85%
